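All cell lines were grown in 96-well plates and treated with compound for 48 hours. Abbreviation: GI50, concentration required for 50% inhibition of growth.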 Active and inactive are the calls of the source. No stated cut-off is given here; in the data, active = GI50 up to about 1.1 µM and inactive = higher.
Legend:
Test in all cases: DTP human tumour cell line panel, 48 h
UACC-62 = tested on: UACC-62
HCC 2998 = tested on: HCC 2998
HOP-62 = tested on: HOP-62
SK-MEL-2 = tested on: SK-MEL-2
RPMI-8226 = tested on: RPMI-8226
MDA-N = tested on: MDA-N
SR = tested on: SR
K562 = tested on: K562
LOX IMVI = tested on: LOX IMVI
OVCAR-5 = tested on: OVCAR-5
EKVX = tested on: EKVX
BT-549 = tested on: BT-549
NCI-H23 = tested on: NCI-H23
CCRF-CEM = tested on: CCRF-CEM
COLO 205 = tested on: COLO 205
U-251 = tested on: U-251
NCI-H226 = tested on: NCI-H226
MOLT-4 = tested on: MOLT-4
T47D = tested on: T47D

Measured: GI50

Cc1nc(SCC(=O)Nc2ccc(Cl)cc2)c2sc(=S)n(-c3ccccc3)c2n1
inactive: UACC-62 > 10 µM | HCC 2998 > 10 µM | HOP-62 > 10 µM | SK-MEL-2 > 10 µM | RPMI-8226 > 10 µM | MDA-N > 10 µM | SR 6.28 µM | K562 6.41 µM | LOX IMVI > 10 µM | OVCAR-5 > 10 µM | EKVX > 10 µM | BT-549 > 10 µM | NCI-H23 > 10 µM | CCRF-CEM > 10 µM | COLO 205 > 10 µM | U-251 > 10 µM | NCI-H226 > 10 µM | MOLT-4 > 10 µM | T47D > 10 µM

CC1(C2(C)OC(=O)c3ccccc32)OC(=O)c2ccccc21 (configuration not stated)
inactive: UACC-62 > 100 µM | HCC 2998 > 100 µM | HOP-62 > 100 µM | SK-MEL-2 > 100 µM | RPMI-8226 > 100 µM | MDA-N > 100 µM | SR > 100 µM | LOX IMVI > 100 µM | BT-549 > 100 µM | NCI-H23 > 100 µM | COLO 205 > 100 µM | U-251 > 100 µM | NCI-H226 > 100 µM | MOLT-4 83.8 µM | T47D > 100 µM

COc1ccc(/C=C2\CSC/C(=C\c3ccc(OC)c(OC)c3OC)C2=O)c(OC)c1OC
inactive: UACC-62 14.9 µM | HCC 2998 > 10 µM | HOP-62 60.8 µM | SK-MEL-2 54.6 µM | RPMI-8226 16.4 µM | MDA-N 30.3 µM | SR 26.9 µM | K562 23.1 µM | LOX IMVI 23.4 µM | OVCAR-5 > 100 µM | EKVX > 100 µM | BT-549 35.5 µM | NCI-H23 43.5 µM | CCRF-CEM 12.9 µM | COLO 205 37.9 µM | U-251 39.8 µM | NCI-H226 > 100 µM | MOLT-4 > 10 µM | T47D > 100 µM

Cn1c2ccccc2c2cc(N3CCCC3)c3c(c21)C(=O)N(c1ccccc1)C3=O
inactive: UACC-62 56.8 µM | HCC 2998 > 100 µM | HOP-62 60.8 µM | RPMI-8226 > 100 µM | MDA-N > 100 µM | SR > 100 µM | K562 > 100 µM | LOX IMVI > 100 µM | OVCAR-5 > 100 µM | EKVX 86.7 µM | BT-549 > 100 µM | NCI-H23 > 100 µM | CCRF-CEM > 100 µM | COLO 205 > 100 µM | U-251 > 100 µM | NCI-H226 47 µM | MOLT-4 > 100 µM | T47D 62.1 µM

CN(Cc1cnc2nc(N)nc(N)c2n1)c1ccc(C(=O)NCCS(=O)(=O)O)cc1
inactive: UACC-62 > 100 µM | HCC 2998 > 100 µM | HOP-62 > 100 µM | SK-MEL-2 > 100 µM | RPMI-8226 > 100 µM | MDA-N > 100 µM | SR 67.6 µM | K562 > 100 µM | LOX IMVI > 100 µM | OVCAR-5 > 100 µM | EKVX > 100 µM | BT-549 > 100 µM | NCI-H23 > 100 µM | COLO 205 > 100 µM | U-251 > 100 µM | NCI-H226 > 100 µM | MOLT-4 > 100 µM | T47D > 100 µM

NCC1OC(OC2C(N)CC(N)C(O)C2OC2OC(CO)C(O)C2O)C(N)C(O)C1O (configuration not stated)
inactive: UACC-62 > 100 µM | HCC 2998 > 50 µM | HOP-62 > 50 µM | SK-MEL-2 > 50 µM | MDA-N > 50 µM | SR > 50 µM | K562 > 100 µM | LOX IMVI > 50 µM | OVCAR-5 > 100 µM | EKVX > 100 µM | BT-549 > 100 µM | NCI-H23 > 100 µM | CCRF-CEM > 100 µM | U-251 > 100 µM | NCI-H226 > 100 µM | MOLT-4 > 50 µM | T47D > 50 µM

C[N+](C)(CCNc1ccc(NCC[N+](C)(C)Cc2ccc([N+](=O)[O-])cc2)c2c1C(=O)c1ccccc1C2=O)Cc1ccc([N+](=O)[O-])cc1
inactive: UACC-62 > 100 µM | HCC 2998 > 100 µM | HOP-62 > 100 µM | SK-MEL-2 > 100 µM | MDA-N > 100 µM | SR > 100 µM | K562 70.3 µM | LOX IMVI > 100 µM | OVCAR-5 > 100 µM | EKVX > 100 µM | BT-549 > 100 µM | NCI-H23 > 100 µM | CCRF-CEM > 100 µM | COLO 205 > 100 µM | U-251 > 100 µM | NCI-H226 > 100 µM | MOLT-4 > 100 µM | T47D > 100 µM

Cn1ncc2c(Cl)ncnc21
inactive: UACC-62 > 100 µM | HCC 2998 > 100 µM | HOP-62 > 100 µM | SK-MEL-2 > 100 µM | RPMI-8226 > 100 µM | MDA-N > 100 µM | SR > 100 µM | K562 > 100 µM | LOX IMVI > 100 µM | OVCAR-5 > 100 µM | EKVX > 100 µM | BT-549 > 100 µM | NCI-H23 > 100 µM | COLO 205 > 100 µM | U-251 > 100 µM | NCI-H226 > 100 µM | MOLT-4 > 100 µM | T47D > 100 µM

From ChEMBL document CHEMBL1201862, “PubChem BioAssay data set” (2004)
